Measurements from US8796245B2 (TetraPhase Pharmaceuticals, Inc., priority 2008, dated 2014).
Values after ≈ are worked out from the molar mass of the structure shown.

Key:
[1] = tested on: tetracycline-resistant S. aureus; experiment: TetR MIC90; format: cell-based; settings: Staphylococcus aureus; inhibit 90% of tetracycline-resistant S. aureus (n = 10); read-out: TetR MIC 90
Procedure: (§1) Twenty randomly selected clinical isolates of S. aureus were used to determine the minimal inhibitory concentration (MIC) of test compounds for 90% of the isolates (MIC90). MICs were performed by microtiter broth dilution in a 96-well format according to Clinical Laboratory Standards Institute (CLSI) guidelines, as described above.

S. aureus ATCC 13709 = experiment: Thigh burden, neutropenic mouse thigh infection; format: in vivo; settings: maximum log10 reduction in bacteria compared to untreated control, achieved at tested doses; neutropenic mice, IV
Procedure: Female CD-1 mice were pre-treated with cyclophosphamide to render the mice neutropenic. Mice were infected with S. aureus ATCC 13709 via injection into the right thigh muscle of 0.1 ml per mouse. One and a half hours post infection mice were treated IV with test compounds in doses ranging from 0.3 to 30 mg/kg or 0.3 to 20 mg/kg. Four mice were treated with each drug concentration. Twenty-four hours post treatment, mice were euthanized by CO2 inhalation. The right thighs of the mice were aseptically removed, weighed, homogenized, serially diluted, and plated on TSA medium. The plates were incubated overnight at 37° C. in 5% CO2. Colony forming units per gram of thigh was calculated by enumerating the plated colonies then adjusting for serial dilutions and the weight of the thigh.

[2] = tested on: clinical isolates of E. coli; experiment: EC MIC90; format: cell-based; settings: Escherichia coli; inhibit 90% of E. coli clinical isolates (n = 20); read-out: EC MIC 90
Procedure: as §1, with “above. Twenty randomly selected clinical isolates of E. coli were used to determine the MIC90 as described above.” for “above.”

[3] = Metabolic stability, pooled human microsome assay; format: in vitro ADME; settings: % compound remaining after 60 min, 37° C. incubation with human liver microsomes
Procedure: A stock solution of the test compounds were prepared by dissolving the compound in DMSO to a final concentration of 1.0 mg/mL. The analytes and internal standard were diluted and infused into the LC/MS system to determine optimal ionization, polarity and MS/MS fragmentation for selection of specific MRM (multiple reaction monitoring) transitions. Generic chromatographic conditions were developed with a less than 5 minute cycle time. Pooled human microsome assays were conducted at 0.2 mg/mL protein with an NADPH generating cofactor system (1.3 mM NADP+, 3.3 mM glucose-6-phosphate, 0.4 U/mL glucose-6-phosphate dehydrogenase, and 3.3 mM magnesium chloride). Test compounds were diluted from DMSO stocks to 1 μM reaction concentrations. Time points were removed at 0 and 60 minutes. After a protein crash with acetonitrile, samples are analyzed by LC/MS/MS. Peak areas are compared to the time 0 sample, and the percent analyte remaining is calculated. A reaction containing no cofactor was used to control for analyte loss due to non-specific binding, thermal degradation and solubility.

[4] = tested on: clinical isolates of S. aureus; experiment: SA MIC90; format: cell-based; settings: Staphylococcus aureus; inhibit 90% of S. aureus clinical isolates (n = 20); read-out: SA MIC 90
Procedure: Twenty randomly selected clinical isolates of S. aureus were used to determine the minimal inhibitory concentration (MIC) of test compounds for 90% of the isolates (MIC90). MICs were performed by microtiter broth dilution in a 96-well format according to Clinical Laboratory Standards Institute (CLSI) guidelines, as described above. Viable counts were determined by 10-fold serial dilution. Dilutions were prepared in sterile 0.9% NaCl. Ten microliters of the inoculum and of each of 5 dilutions were plated onto blood or Mueller Hinton agar plates, incubated overnight at 37° C. with 5% CO2, and counted.

[5] = tested on: S. aureus isolate, ATCC 13709; experiment: ED50 IV study, mouse systemic infection model; format: in vivo; settings: Staphylococcus aureus, ATCC13709, mg/kg required to protect 50% of mice in septicemia model with S. aureus Smith strain, 60 minutes post infection, 48 hour survival
Procedure: (§2) Compounds of the present invention were evaluated for efficacy in a mouse systemic infection model against a susceptible S. aureus isolate, ATCC 13709. Mice were infected via intraperitoneal injection with a bacterial load that would result in 0% survival within 48 hours after infection. Mice received the test compounds 60 minutes post infection via intravenous injection. […] Survival was assessed over a 48 hour period. Percent survival was calculated and PD50 values determined using Probit analysis.

E. coli ATCC 25922 = experiment: GN sepsis study, mouse systemic infection model; format: in vivo; settings: mg/kg required to protect 50% of mice in septicemia model with E. coli strain
Procedure: as §2, with “analysis. The protocol for GN sepsis study was similar to the protocol for EV50 IV study described above except the infection model used E. coli ATCC 25922.” for “analysis.”

[6] = Protein binding in human plasma (RED devices); format: in vitro ADME; settings: % Protein binding in human plasma with compound at 10 uM
Procedure: Test compounds were prepared as 1.0 mg/mL stock solutions in DMSO. The analytes and internal standard were diluted and infused into the LC/MS system to determine optimal ionization, polarity and MS/MS fragmentation for selection of specific MRM (multiple reaction monitoring) transitions. Generic chromatographic conditions were developed with a less than 5 minute cycle time.
[…] The time point was removed at the end of the incubation period. After a protein crash with acetonitrile, the samples were analyzed by LC/MS/MS. Peak areas for the buffer (receiver) and sample (donor) chambers were compared and the protein bound fraction is calculated. Analysis was conducted in duplicate.

[7] = tested on: S. aureus SA161, a tetracycline-resistant strain; experiment: Tet-R sepsis study, mouse systemic infection model; format: in vivo; settings: mg/kg required to protect 50% of mice in septicemia model with tetracycline-resistant S. aureus strain
Procedure: as §2
The protocol for tetracycline-resistance sepsis study was similar to the protocol for EV50 IV study described above except the infection model used S. aureus SA161, a tetracycline-resistant strain.

Structure (SMILES) | MIC90 [1] | Thigh Burden (S. aureus ATCC 13709) | MIC90 [2] | Meta Stab % [3] | MIC90 [4] | ED50 [5] | GN sepsis (E. coli ATCC 25922) | Prot Bind % [6] | TetR sepsis [7]
CN(C)c1cc(NC(=O)CNC(C)(C)C)c(O)c2c1C[C@H]1C[C@H]3[C@H](N(C)C)C(O)=C(C(N)=O)C(=O)[C@@]3(O)C(O)=C1C2=O | 1 mg/L (≈ 1.71 µM) | 4.89 log10 decrease | 0.5 mg/L (≈ 0.854 µM) | 55% | 0.06 mg/L (≈ 0.102 µM) | 0.97 mg/kg | 2.1 mg/kg | 69.1% | 0.55 mg/kg
CN(C)[C@@H]1C(O)=C(C(N)=O)C(=O)[C@@]2(O)C(O)=C3C(=O)c4c(O)c(NC(=O)CNC(C)(C)C)cc(F)c4C[C@H]3C[C@@H]12 [drawing 214] | 2 mg/L (≈ 3.57 µM) | 4.41 log10 decrease | 0.5 mg/L (≈ 0.892 µM) | 104% | 0.03 mg/L (≈ 0.0535 µM) | 0.3 mg/kg | 6.2 mg/kg | 90% | 0.4 mg/kg
CC(C)CNCC(=O)Nc1cc(F)c2c(c1O)C(=O)C1=C(O)[C@]3(O)C(=O)C(C(N)=O)=C(O)[C@@H](N(C)C)[C@@H]3C[C@@H]1C2 [drawing 215] | 4 mg/L (≈ 7.14 µM) | 5.01 log10 decrease | 1 mg/L (≈ 1.78 µM) | 72% | 0.03 mg/L (≈ 0.0535 µM) | 0.55 mg/kg | 14.3 mg/kg | 95.6% | 3.5 mg/kg
CN(C)[C@@H]1C(O)=C(C(N)=O)C(=O)[C@@]2(O)C(O)=C3C(=O)c4c(O)c(NC(=O)CN5CCCC5)cc(F)c4C[C@H]3C[C@@H]12 [drawing 217] | 2 mg/L (≈ 3.58 µM) | 5.24 log10 decrease | 0.5 mg/L (≈ 0.895 µM) | 86% | 0.03 mg/L (≈ 0.0537 µM) | 0.3 mg/kg | 4.36 mg/kg | 79.4% | 1 mg/kg
CN(C)CC(=O)Nc1cc(F)c2c(c1O)C(=O)C1=C(O)[C@]3(O)C(=O)C(C(N)=O)=C(O)[C@@H](N(C)C)[C@@H]3C[C@@H]1C2 [drawing 220] | 4 mg/L (≈ 7.51 µM) | 4.12 log10 decrease | 4 mg/L (≈ 7.51 µM) | 109% | 0.06 mg/L (≈ 0.113 µM) | 0.073 mg/kg | 4.3 mg/kg | 93.6% | 0.62 mg/kg
